Article PMC6530213, “Monitoring flux in signalling pathways through measurements of 4EBP1-mediated eIF4F complex assembly” (BMC Biology, 2019)
One block for each compound: values may come before it.

Key:
[1] = test system: eIF4E:eIF4G^604–646 complex; assay: NanoBit eIF4E:eIF4G^604–646 protein complementation assay in HEK293 cells; format: cell-based; conditions: for Extent of disruption of NanoBit signal / eIF4F complex: HEK293, relative to eIF4G YLL-LgBit binding control or maximal dose of Torin
Procedure: (§1) Opaque 96-well plates were seeded with 20,000 HEK293 cells per well in DMEM and 10% FCS. Transfections in 96-well plate format were performed using FUGENE6 (Roche) with 100 ng of the indicated plasmid vectors per well as outlined in the manufacturer’s instructions (Fig. 1). Twenty-four hours after transfection, the medium was replaced with 100 μl of Opti-MEM I cell media containing 0% FCS with no added red phenol (Thermo Fisher Scientific) and luminescence activity assayed (as outlined in “NanoBit and cell viability experiments” section). Transfections utilising 4EBP1 constructs were performed with either 50 ng of the indicated construct or empty vector.
(§2) Twenty-four hours prior to transfection, cells (HEK293, PANC-1 or PC-3) were seeded at a cell density of 800,000 cells per well of a six-well plate (Thermo Fisher Scientific). Transfections in six-well plates were performed using Lipofectamine 3000 (Thermo Fisher Scientific) with 3 μg of the indicated plasmid vectors per well according to the manufacturer’s instructions. For knockdown experiment, siRNA Ctrl or 4EBP1 at a final concentration of 100 nM were included in the transfection mixture. Transfections utilising GFP and GFP-MYC contained 1 μg of each vector or empty vector, respectively. In the case of transfections utilising any of the 4EBP1 constructs described, only 0.5 μg of each vector or empty vector was used, respectively. After a 24- or 48-h (as indicated in the figure legends) incubation period, the medium was removed and cells were washed with PBS saline. Cells were then either lysed directly for immunoprecipitation experiments or were trypsinised and re-suspended in Opti-MEM media with 0% FCS to perform NanoBit and cell viability experiments in a 96-well format.
(§3) Either HEK293, PC-3 or PANC-1 cells were spun down at 1000 rpm for 5 min at room temperature. Supernatant was then discarded, and cells re-suspended to a density of to 220,000 cells per millilitre in Opti-MEM I cell media containing 0% FBS with no added red phenol. Then 90 μl of the cell re-suspension was added to the wells of a white opaque 96-well plate. Compounds were then titrated onto the 96-well plate using a suitable twofold dilution series from a 10× stock solution containing 10% v/v DMSO. Control wells were also treated with a 10% DMSO only stock solution to yield a final residual DMSO concentration of 1% v/v. The 96-well plates were then incubated for 4 h at 37 °C, with 5% CO2. Wells were then treated with a solution of Nano-Glo live substrate, which was prepared as per the manufacturer’s instructions. The plates were then shaken for 1 min at 22 °C and luminescence assessed after additional 50 min using an Envision Multi-Plate reader (Perkin-Elmer). Plates were then multiplexed with CellTiter-GLO 2.0 reagent (PROMEGA) and cellular viability determined according to the manufacturer’s instruction. NanoBit titration data was used to determine IC50 values for drug potency by fitting 4 parameter logistic curves using GraphPad Prism 7.0.

[2] = test system: HEK293 cells; assay: Cell viability by intracellular ATP (CellTiter-GLO) in HEK293 cells; format: cell-based; conditions: HEK293, 4-h treatment
Procedure: as §3

[3] = molecular target: eIF4E-eIF4G interface; conditions: published value; read-out: in vitro Kd; cited from earlier work
[4] = test system: full-length NanoLuc luciferase; assay: Full-length NanoLuc luciferase counter-screen in HEK293 cells; format: cell-based; conditions: HEK293 transfected with full-length NanoLuc
[5] = molecular target: T1, eIF4E:eIF4G^604–646 complex (Homo sapiens, UniProt P06730); assay: NanoBit eIF4E:eIF4G^604–646 protein complementation assay in HEK293 cells; format: cell-based; conditions: HEK293, 4 h, normalised to DMSO and to full-length NanoLuc counter-screen; read-out: IC50, NanoBit eIF4E:eIF4G^604–646 signal
T1 construct: linked either to full-length eIF4E or the eIF4G^604–646 fragment; expressed in transfected cells; host or cells: HEK293
Procedure: as §1, §2, §3

[6] = test system: eIF4E:eIF4G^604–646 complex; assay: NanoBit eIF4E:eIF4G^604–646 protein complementation assay in PANC-1 cells; format: cell-based
Procedure: as §2
as §3, with “Wells were then treated with a solution of Nano-Glo live substrate, which was prepared as per the manufacturer’s instructions.” left out, “NanoBit titration data was used to determine IC50 values for drug potency by fitting 4 parameter logistic curves using GraphPad Prism 7.0.” left out

[7] = test system: eIF4E:eIF4G^604–646 complex; assay: NanoBit eIF4E:eIF4G^604–646 protein complementation assay in PC-3 cells; format: cell-based; conditions: for Activity in NanoBit system: PC-3 cells, 4 h
Procedure: as §2, §3

[8] = test system: eIF4E S209 phosphorylation; assay: AlphaScreen Surefire eIF4E S209 phosphorylation assay in PC-3 cells; format: cell-based; conditions: PC3 cells, 4E-BP1 protein levels high, normalised to GAPDH, read-out: pEIF4E SureFire (IC50)
Procedure: (§4) Ninety-six-well plates were seeded at 30,000 cells per well with non-transfected PC-3, PANC-1 or HKEK293 cells in DMEM with 10% FCS and incubated overnight. Cells were then washed with PBS and the media replaced with OPTI-MEM containing no serum. Cells were then treated with the indicated compounds. Controls were performed with DMSO vehicle treatments. Four hours post treatments, cells were lysed with 50 μl of passive lysis buffer (PerkinElmer) for 15 min and 10 μl of lysate from each well was transferred into a white bottom 384-well plate. GAPDH and pS209 eIF4E levels were assessed according to the manufacturer’s instructions (PerkinElmer) for each sample. Luminescence was measured using an Envision Multiplate reader (PerkinElmer).

[9] = test system: eIF4E S209 phosphorylation; assay: AlphaScreen Surefire eIF4E S209 phosphorylation assay in PANC-1 cells; format: cell-based
Procedure: as §4

[10] = test system: PC-3 cells; assay: Cell viability by intracellular ATP (CellTiter-GLO) in PC-3 cells; format: cell-based; conditions: NanoBit co-transfected PC-3 cells, 4 h
Procedure: as §3

[11] = HEK293, 4 h treatment, read-out: IC50, NanoBit eIF4E:eIF4G^604–646 signal

T1 sequence (P06730 2-217, one chain of several): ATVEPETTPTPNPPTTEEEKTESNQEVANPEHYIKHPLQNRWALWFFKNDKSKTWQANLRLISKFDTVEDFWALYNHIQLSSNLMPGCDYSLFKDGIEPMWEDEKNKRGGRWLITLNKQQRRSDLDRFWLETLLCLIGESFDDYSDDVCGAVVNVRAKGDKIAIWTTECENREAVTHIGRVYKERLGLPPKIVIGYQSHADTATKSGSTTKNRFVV

SMILES: O=C(O)C(Cc1ccccc1[N+](=O)[O-])=NNc1nc(-c2ccc(Cl)c(Cl)c2)cs1 (mixture of isomers) [4EGi-1]
Extent of disruption of NanoBit signal / eIF4F complex [1]: neither achieved complete disruption of the signal
Effect on cell viability (intracellular ATP) [2]: only 4ER1Cat was observed to have an effect
Kd [3]: 25000 nM
Inhibition of full-length luciferase signal (counter-screen) [4]: Non-specific inhibition of the luciferase signal

SMILES: O=C(O)c1ccc(N2C(=O)/C(=C\c3ccc(-c4ccc([N+](=O)[O-])cc4)o3)C=C2c2ccccc2)cc1 [4E1RCat]
Extent of disruption of NanoBit signal / eIF4F complex [1]: neither achieved complete disruption of the signal
IC50 [5]: 600 ± 150 nM
Effect on cell viability (intracellular ATP) [2]: observed to have an effect
Kd [3]: 3200 nM
Inhibition of full-length luciferase signal (counter-screen) [4]: Non-specific inhibition of the luciferase signal

SMILES: CC(C)NC[C@@H](C(=O)N1CCN(c2ncnc3c2[C@H](C)C[C@H]3O)CC1)c1ccc(Cl)cc1 [Ipasertib]
IC50 [1, 11]: 170 ± 24 nM

SMILES: CC(C)n1nc(-c2cc3cc(O)ccc3[nH]2)c2c(N)ncnc21 [PP242]
Effect on cell viability (intracellular ATP) [2]: neither Rapamycin, Torin nor PP242 affected the cells adversely

SMILES: CO[C@H]1C[C@@H]2CC[C@@H](C)[C@@](O)(O2)C(=O)C(=O)N2CCCC[C@H]2C(=O)O[C@H]([C@H](C)C[C@@H]2CC[C@@H](O)[C@H](OC)C2)CC(=O)[C@H](C)/C=C(\C)[C@@H](O)[C@@H](OC)C(=O)[C@H](C)C[C@H](C)/C=C/C=C/C=C/1C [Rapamycin]
IC50 [1, 11]: 6880 ± 880 nM
Effect on cell viability (intracellular ATP) [2]: neither Rapamycin, Torin nor PP242 affected the cells adversely

SMILES: CCC(=O)N1CCN(c2ccc(-n3c(=O)ccc4cnc5ccc(-c6cnc7ccccc7c6)cc5c43)cc2C(F)(F)F)CC1 [Torin]
IC50 [1, 11]: 60 ± 10 nM
IC50 ([8]; Homo sapiens, PC-3): 100 ± 20 nM
Effect on cell viability (intracellular ATP) [2]: neither Rapamycin, Torin nor PP242 affected the cells adversely
pEIF4E SureFire (IC50, μM) ([9]; PANC cells, 4E-BP1 protein levels low, normalised to GAPDH): No Inhibition
IC50 ([6]; 4E-BP1 protein levels low, read-out: NanoBit eIF4E:4G (IC50)): 130 ± 30 nM
IC50 ([7]; PC3 cells, 4E-BP1 protein levels high, read-out: NanoBit eIF4E:4G (IC50)): 20 ± 10 nM

SMILES: CC(C)Nc1cc(-c2c[nH]c(C(=O)N[C@H](CO)c3cccc(Cl)c3)c2)c(Cl)cn1 [Ulixertinib]
IC50 [1, 11]: 4700 ± 1800 nM

Continued, in another order:

IC50 ([1]; HEK293, 4 h, read-out: apparent IC50, NanoBit eIF4E:eIF4G^604–646 signal): 8 ± 0.7 nM
SMILES: Cn1c(=O)n(-c2ccc(C(C)(C)C#N)cc2)c2c3cc(-c4cnc5ccccc5c4)ccc3ncc21 [BEZ235]
Attenuation of potency by siRNA-mediated knockdown of 4EBP1 ([1]; HEK293, si4EBP1 versus siCtrl): substantially reduced
Extent of disruption of NanoBit signal / eIF4F complex [1]: achieved maximal inhibition of eIF4F activity
Decrease in potency on overexpression of GFP-MYC ([1]; HEK293 co-transfected with GFP-MYC versus GFP control): over an order of magnitude
Activity in NanoBit system ([6]; 4 h): dramatically attenuated
Effect of siRNA 4EBP1 knockdown on activity ([7]; PC3 cells, si4EBP1 versus siCtrl): strongly attenuated
Activity in NanoBit system [7]: mid-nanomolar range

NanoBit eIF4E:4G (IC50, μM) ([6]; 4E-BP1 protein levels low): No Inhibition
NanoBit eIF4E:4G (IC50, μM) ([7]; PC3 cells, 4E-BP1 protein levels high): No Inhibition
SMILES: Nc1ncnc2n[nH]c(Nc3ccc(F)cc3)c12 [CGP57380]
Effect on NanoBit luminescence signal in combination with Ipasertib versus Ipasertib alone ([1]; HEK293, CGP57380 at constant concentrations, 4 h): did not lead to a larger decrease of the luminescence signal
IC50 [8]: 3000 ± 1700 nM
Decrease in ability to prevent phosphorylation of eIF4E, PANC1 versus PC-3 ([9]; PANC1 cells compared with PC-3): twofold
IC50 ([9]; PANC cells, 4E-BP1 protein levels low, normalised to GAPDH, read-out: pEIF4E SureFire (IC50)): 6200 ± 1300 nM
Activity in NanoBit system [7]: no decrease in the luminescence signal
Effect on cell viability [10]: no decrease in the luminescence signal or decrease in cell viability

IC50 [1, 11]: 2600 ± 1800 nM
SMILES: O=C(Nc1ccc2[nH]nc(-c3ccncc3)c2c1)[C@@H]1CCN(CC(=O)N2CCN(c3ccc(-c4ncccn4)cc3)CC2)C1 [SCH772984]
Effect on eIF4F disruption in combination with Ipasertib titration ([1]; HEK293, SCH-772984 constant at 1 μM): additive effect
